From ChEMBL document CHEMBL1149882, “Sesterterpenoids from the sponge Sarcotragus sp” (J Nat Prod, 2008)
Values after ≈ are worked out from the molar mass of the structure shown.

Key:
Staphylococcus aureus [1] = experiment: Antimicrobial activity against methicillin-resistant Staphylococcus aureus ATCC 43300; format: functional
Staphylococcus aureus [2] = experiment: Antimicrobial activity against Staphylococcus aureus ATCC 65389; format: functional
Salmonella typhimurium = experiment: Antimicrobial activity against Salmonella Typhimurium ATCC 14028; format: functional, Salmonella enterica subsp. enterica serovar Typhimurium; details: Salmonella enterica
Bacillus subtilis = experiment: Antimicrobial activity against Bacillus subtilis ATCC 6633; format: functional
Staphylococcus aureus [3] = experiment: Antimicrobial activity against methicillin-resistant Staphylococcus aureus ATCC 700787; format: functional
Proteus vulgaris = experiment: Antimicrobial activity against Proteus vulgaris ATCC 3851; format: functional
K562 = experiment: Cytotoxicity against human K562 cells by MTT assay; format: functional; details: read-out: LC50 (the source's name)
Isocitrate lyase = Isocitrate lyase (Candida albicans, UniProt Q9P8Q7); experiment: Inhibition of Candida albicans isocitrate lyase
Micrococcus luteus = experiment: Antimicrobial activity against Micrococcus luteus IFC12708; format: functional
Staphylococcus aureus [4] = experiment: Antimicrobial activity against methicillin-resistant Staphylococcus aureus ATCC 700788; format: functional
Escherichia coli = experiment: Antimicrobial activity against Escherichia coli ATCC 11775; format: functional

Chain of Isocitrate lyase (Q9P8Q7 whole entry): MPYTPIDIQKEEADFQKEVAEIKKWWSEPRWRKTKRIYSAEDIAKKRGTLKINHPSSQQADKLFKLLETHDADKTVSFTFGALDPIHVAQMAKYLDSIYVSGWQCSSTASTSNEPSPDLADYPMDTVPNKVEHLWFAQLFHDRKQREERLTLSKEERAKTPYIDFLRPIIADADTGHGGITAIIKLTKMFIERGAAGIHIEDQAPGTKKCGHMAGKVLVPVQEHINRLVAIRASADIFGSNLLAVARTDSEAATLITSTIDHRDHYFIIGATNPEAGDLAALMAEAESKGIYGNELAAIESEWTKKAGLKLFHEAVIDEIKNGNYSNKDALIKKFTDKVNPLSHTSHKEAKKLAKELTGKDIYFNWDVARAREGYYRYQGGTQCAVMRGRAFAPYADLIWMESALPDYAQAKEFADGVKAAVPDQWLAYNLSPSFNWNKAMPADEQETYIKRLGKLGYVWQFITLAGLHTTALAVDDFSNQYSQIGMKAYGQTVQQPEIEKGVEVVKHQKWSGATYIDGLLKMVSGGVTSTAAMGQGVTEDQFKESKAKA

Row | Compound | MIC (Staphylococcus aureus [1]) [µg/mL] | MIC (Staphylococcus aureus [2]) [µg/mL] | MIC (Salmonella typhimurium) [µg/mL] | MIC (Bacillus subtilis) [µg/mL] | MIC (Staphylococcus aureus [3]) [µg/mL] | MIC (Proteus vulgaris) [µg/mL] | CC50 (K562) [µg/mL] | IC50 (Isocitrate lyase) [µM] | MIC (Micrococcus luteus) [µg/mL] | MIC (Staphylococcus aureus [4]) [µg/mL] | MIC (Escherichia coli) [µg/mL]
1 | COC(=O)C(C)(O)[C@](O)(C[C@H](C)CCC/C(C)=C/CC/C(C)=C/CCc1ccoc1)C(=O)OC (stereo not given in full) | > 100 | > 100 | > 100 | > 100 | > 100 | > 100 | 20 (≈ 41.8 µM) | > 418 | 100 (≈ 209 µM) | > 100 | > 100
2 | COC(=O)C(C)(O)[C@](O)(C[C@H](C)CCC/C(C)=C/CC/C(C)=C/CCC1=CCN(CC(=O)O)C1=O)C(=O)OC (stereo not given in full) | > 100 | > 100 | > 100 | > 100 | > 100 | > 100 | > 100 | > 363 | > 100 | > 100 | > 100
3 | CC1=C(O)/C(=C/[C@H](C)CCC/C(C)=C/CC/C(C)=C/CCc2ccoc2)OC1=O | 50 (≈ 125 µM) | 12.5 (≈ 31.4 µM) | 25 (≈ 62.7 µM) | 6.25 (≈ 15.7 µM) | 50 (≈ 125 µM) | 12.5 (≈ 31.4 µM) | 39 (≈ 97.9 µM) | 81.5 | 12.5 (≈ 31.4 µM) | 50 (≈ 125 µM) | > 100
4 | CC1=C(O)/C(=C/[C@H](C)CC/C=C(/C)CC/C=C(/C)CCCc2ccoc2)OC1=O | 6.25 (≈ 15.7 µM) | 3.12 (≈ 7.84 µM) | 6.25 (≈ 15.7 µM) | 3.12 (≈ 7.84 µM) | 6.25 (≈ 15.7 µM) | 6.25 (≈ 15.7 µM) | 62 (≈ 156 µM) | 81.5 | 3.12 (≈ 7.84 µM) | 12.5 (≈ 31.4 µM) | > 100
5 | CC1=C(O)/C(=C/[C@H](C)CCC/C(C)=C/CC/C(C)=C/CCC2=CC(O)OC2=O)OC1=O (stereo not given in full) | > 100 | > 100 | > 100 | > 100 | > 100 | > 100 | > 100 | 29 | 50 (≈ 116 µM) | > 100 | > 100
6 | COC(=O)C(C)(O)[C@@](O)(C[C@H](C)CC/C=C(/C)CC/C=C(/C)CCCc1ccoc1)C(=O)OC (stereo not given in full) | > 100 | > 100 | > 100 | > 100 | > 100 | > 100 | 46 (≈ 96.1 µM) | 253 | 50 (≈ 104 µM) | > 100 | > 100
7 | COC(=O)C(C)(O)[C@](O)(C[C@H](C)CC/C=C(/C)CC/C=C(/C)CCCc1ccoc1)C(=O)OC (stereo not given in full) | > 100 | > 100 | > 100 | > 100 | > 100 | > 100 | 34 (≈ 71 µM) | 188 | > 100 | > 100 | > 100
8 | COC(=O)C(C)(O)[C@](O)(C[C@H](C)CC/C=C(/C)CC/C=C(/C)CCCC1=CCN(CC(=O)O)C1=O)C(=O)OC (stereo not given in full) | > 100 | > 100 | > 100 | > 100 | > 100 | > 100 | > 100 | 358 | > 100 | > 100 | > 100
9 | CC1=C(O)/C(=C/[C@H](C)CCC/C(C)=C/CCC(C)(O)CCCc2ccoc2)OC1=O (stereo not given in full) | 100 (≈ 240 µM) | > 100 | > 100 | > 100 | > 100 | > 100 | > 100 | 55.7 | 100 (≈ 240 µM) | > 100 | > 100
10 | COC1C=C(CC/C=C(\C)CC/C=C(\C)CCC[C@@H](C)/C=C2\OC(=O)C(C)=C2O)C(OC)O1 (stereo not given in full) | 50 (≈ 109 µM) | 100 (≈ 217 µM) | > 100 | 50 (≈ 109 µM) | 50 (≈ 109 µM) | 100 (≈ 217 µM) | 80 (≈ 174 µM) | 91.4 | 50 (≈ 109 µM) | 100 (≈ 217 µM) | > 100
11 | C/C(=C\CCc1ccoc1)CC/C=C(\C)CCC[C@@H](C)CC(=O)O | 25 (≈ 75.2 µM) | 100 (≈ 301 µM) | 50 (≈ 150 µM) | > 100 | 100 (≈ 301 µM) | 50 (≈ 150 µM) | > 100 | > 602 | 12.5 (≈ 37.6 µM) | > 100 | > 100
12 | C/C(=C/CC[C@@H](C)CC(=O)O)CC/C=C(/C)CCCc1ccoc1 | 12.5 (≈ 37.6 µM) | 25 (≈ 75.2 µM) | 12.5 (≈ 37.6 µM) | 25 (≈ 75.2 µM) | 25 (≈ 75.2 µM) | 25 (≈ 75.2 µM) | > 100 | 241 | 6.25 (≈ 18.8 µM) | 25 (≈ 75.2 µM) | > 100
13 | C/C(=C/CC[C@@H](C)CC(=O)O)CC/C=C(/C)CCCC1=CC(=O)OC1=O | > 100 | > 100 | > 100 | > 100 | > 100 | > 100 | > 100 | 54.9 | 100 (≈ 276 µM) | > 100 | > 100
14 | CC1=C(O)/C(=C/[C@H](C)CC/C=C(/C)CC/C=C(/C)CCCC2=CC(=O)OC2O)OC1=O (stereo not given in full) | 100 (≈ 232 µM) | > 100 | > 100 | > 100 | 100 (≈ 232 µM) | > 100 | > 100 | 91.5 | 50 (≈ 116 µM) | > 100 | > 100
15 | COC1C=C(CCC/C(C)=C\CC/C(C)=C\CC[C@@H](C)/C=C2\OC(=O)C(C)=C2O)C(OC)O1 (stereo not given in full) | 100 (≈ 217 µM) | 100 (≈ 217 µM) | > 100 | 50 (≈ 109 µM) | 100 (≈ 217 µM) | > 100 | 83 (≈ 180 µM) | 95.1 | 50 (≈ 109 µM) | 100 (≈ 217 µM) | > 100
16 | CC1=C(O)/C(=C/[C@H](C)CC/C=C(/C)CC/C=C(/C)CCCC2=CC(O)OC2=O)OC1=O (stereo not given in full) | > 100 | > 100 | > 100 | > 100 | > 100 | > 100 | > 100 |  | 100 (≈ 232 µM) | > 100 | > 100
17 | CC1(C)S[C@@H]2[C@H](NC(=O)[C@H](N)c3ccccc3)C(=O)N2[C@H]1C(=O)O [AMPICILLIN] |  | 1.56 (≈ 4.47 µM) | 1.56 (≈ 4.47 µM) | 3.12 (≈ 8.94 µM) |  | 3.12 (≈ 8.94 µM) |  |  | 12.5 (≈ 35.8 µM) |  | 1.56 (≈ 4.47 µM)
18 | C=C(CC(=O)O)C(=O)O [ITACONATE] |  |  |  |  |  |  |  | 37.7 |  |  | 
19 | Cc1onc(-c2ccccc2)c1C(=O)N[C@@H]1C(=O)N2[C@@H]1SC(C)(C)[C@@H]2C(=O)O [OXACILLIN] | 25 (≈ 62.3 µM) |  |  |  | 50 (≈ 125 µM) |  |  |  |  | 25 (≈ 62.3 µM) | 
